Source: US8216580B2, “Sulfatases and methods of use thereof” (The Regents of the University of California, priority 2000, dated 2012)

Experiment: Endo-glucosamine-6-sulfatase assay against intact heparin (heparinase digestion, disaccharide HPLC)
Type: biochemical, porcine
Details: for Endo-glucosamine-6-sulfatase activity: 10 μg heparin, pH 7.5, 37° C., 8 hr, means±S.D., three reactions
Experimental: The procedures of Yoshida et al ((1989) Anal. Biochem. 177:327-332) were adapted for these assays. CM from transfected CHO cells (wild-type Sulfs, vector control or the double cysteine mutants) was prepared as described above. The standard reaction mixture contained 5 μmol of Tris-HCl, pH 7.5, 1 μmol of MgCl2, 10 μg of porcine intestinal heparin (Sigma, St. Louis, Mo.) and 20 μl of the 100-fold concentrated CM in a total volume of 100 μl. After incubation at 37° C. for 8 hr, the reaction was stopped by heating at 100° C. for 2 min. A mixture of 1 milliunit of Heparinase I (EC 4.2.2.7, Sigma), 0.25 milliunits of Heparinase II (Sigma) and 0.1 milliunits of Heparinase III (EC 4.2.2.8, Sigma) in 1.5 μl of 50 mM Tris-HCl, pH 7.5, was added to the reaction mixture and incubated at 37° C. for 3 hr. The digestion was stopped by heating at 100° C. for 2 min, and the mixture was filtered by centrifugation in an Ultrafree-MC filter (Millipore).
The disaccharides of the digested heparin were then analyzed by HPLC on a Partisil-10 SAX column (Whatman, Fairfield, N.J.) run at 41° C. Disaccharides were eluted from the column by increasing the ionic strength as follows: time 0-5 min, 12 mM KH2PO4; time 5-40 minutes, gradient from 12 mM to 600 mM; time 40-45 min, 600 mM. Absorbance at 232 nm was monitored and components were identified by comparison with authentic unsaturated disaccharide markers from Sigma, i.e. ΔDiHS-0S, ΔDiHS-6S, ΔDiHS-NS, ΔDiHS-(N,6)diS, ΔDiHS-(N,2)diS and ΔDiHS-(N,6,2)triS. The endo-glucosanine-6-sulfatase activities of human Sulf-1 and Sulf-2 against heparin proceeded linearly up to 10 hr under these conditions. In other assays, 10 μg of chondroitin 6-sulfate was employed as a substrate in the standard assay. After incubation with CM, 15 milliunits of Chondroitinase ABC (EC 4.2.2.4, Sigma) was used to fragment the chondroitin sulfate. The standards used were as follows: ΔDi-0S, ΔDi-6S, ΔDi-4S, ΔDi-diSD(2,6) and ΔDi-diSE(4,6). All were from Oxford GlycoSystems Inc.
Intact heparin (10 μg) was treated with conditioned medium from Sulf transfected CHO cells. To analyze activity on specific sulfation modifications, we digested the treated heparin with a mixture of bacterial heparinases and analyzed the disaccharide products by HPLC using standards (Yoshida, supra). Both HSulf-1 CM and Hsulf-2 CM produced an ≈80% reduction in the amount of trisulfated units ([…]) corresponding to IdoA2S-GlcNS6S and a parallel increase in that of disulfated units (ΔDiHS-(N,2)diS) corresponding to IdoA2S-GlcNS (FIG. 16A-C). There were no effects on the disulfated units ΔDiHS-(N,6)diS, monosulfated or non-sulfated units. Specific activities were calculated based on the volume of CM (Table 3). The endosulfatase activities of Sulf-1 and Sulf-2 CM were increased 9-fold and 10-fold respectively relative to CM from mock transfected cells (Table 3). […] Further selectivity of the endosulfatase activity was indicated when we employed chondroitin 6-sulfate as a substrate. […] Thus the Sulfs are active against intact heparin.
Endo-glucosamine-6-sulfatase activity was measured against intact heparin as described in above using CM derived from CHO cells transfected with the indicated vectors. HSulf-1 ΔCC and HSulf-2 ΔCC denote the CC87, 88AA and CC88, 89AA mutants, respectively. Endosulfatase activity was defined by calculating the moles of unsaturated trisulfated disaccharides from which the sulfate group on C-6 position was liberated in the standard assay (FIGS. 16A-F) by the Sulfs as compared to levels in untreated control samples. Values shown are means±S.D. based on three independent reactions.

[1] = CM from transfected CHO cells, intact heparin 10 μg

Row | Substance | Endo-glucosamine-6-sulfatase activity (CM from transfected CHO cells) | effects on the disulfated units ΔDiHS-(N,6)diS, monosulfated or non-sulfated units [1] | reduction in the amount of trisulfated units ([…]) corresponding to IdoA2S-GlcNS6S [1] | endosulfatase activity increase relative to CM from mock transfected cells (based on Table 3) [fold] | removal of sulfate from the 6-position of glucosamine within the tri-sulfated units (intact heparin, neutral pH) [%]
1 | HSulf-2: Human SULF2, an 870 amino acid sulfatase protein, SEQ ID NO:06; expressed with C-terminal Myc-His tag | 96.6 ± 0.5 pmol/hr/ml of medium | no effects | ≈ 80% | 10 | 80
2 | HSulf-2 ΔCC: catalytically inactive HSulf-2, cysteines 88 and 89 mutated to alanines (CC88, 89AA) | 5.6 ± 0.6 pmol/hr/ml of medium | – | – | – | –
